Experimental data: patent publication US12247032B2, “Substituted pyrazolo[1,5-a]pyrimidines as inhibitors of JAK kinases” (Genentech, Inc., priority 2019, dated 2025)

Columns and labels:
[1] = system: JAK1 (IL-13-stimulated STAT6 phosphorylation in BEAS-2B cells); assay: P-STAT6 BEAS-2B+IL-13 cell assay; format: cell-based, human; conditions: Homo sapiens, BEAS-2B, 1 h, 1 hour compound, IL-13 15 minutes, IC50 by four-parameter fit, read-out: Cellular JAK1 PSTAT6 BEAS2B + IL13
In short: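 BEAS-2B human bronchial epithelial cells preincubated 1 h at 37 °C with compound, then stimulated with human recombinant IL-13 for 15 min. Phospho-STAT6 (Tyr641) in lysates measured by MSD electrochemiluminescence immunoassay; IC50 from a four-parameter logistic fit of percent of control.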

[2] = biological target: T1, Recombinant human JAK2 kinase domain protein (Residues 812-1132) (Homo sapiens, UniProt O60674); assay: JAK2 biochemical assay (microfluidic mobility shift, peptide phosphorylation); conditions: 25 μM ATP, 0.2 nM total JAK2; Ki calculated from Ki app (tight-binding, competitive); read-out: Biochem JAK2 Ki
T1 construct: human JAK2 kinase domain protein (Residues 812-1132); made in house; host or cells: insect cells
In short: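 Insect-cell-expressed human JAK1 (1 nM, residues 854-1154) or JAK2 (0.2 nM, residues 812-1132) phosphorylating 1.5 μM 5-FAM peptide Y-1B with 25 μM ATP, pH 7.2 HEPES, 30 min at 22-23 °C; twelve concentrations up to 1000 nM in duplicate. Mobility-shift % conversion fitted to tight-binding quadratic for Ki^app.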

T1 sequence (O60674 812-1132): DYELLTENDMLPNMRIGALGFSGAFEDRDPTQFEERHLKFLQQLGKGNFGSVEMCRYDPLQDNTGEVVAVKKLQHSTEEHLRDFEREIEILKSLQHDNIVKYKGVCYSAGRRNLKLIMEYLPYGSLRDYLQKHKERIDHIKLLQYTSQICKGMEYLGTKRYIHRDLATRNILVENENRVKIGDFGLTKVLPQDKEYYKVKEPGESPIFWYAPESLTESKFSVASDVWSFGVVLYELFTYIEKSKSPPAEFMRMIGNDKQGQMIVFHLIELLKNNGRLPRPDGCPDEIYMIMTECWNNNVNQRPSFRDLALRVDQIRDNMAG

| Compound | IC50 [1] | Ki [2] |
| --- | --- | --- |
| CN1CCC(n2nnnc2Cn2cc(NC(=O)c3cnn4cccnc34)c(-c3cc(OC(F)F)ccc3OC(F)F)n2)C1 (stereo not shown) [Example 26, N-[3-[2,5-bis(difluoromethoxy)phenyl]-1-[[1-(1-methylpyrrolidin-3-yl)tetrazol-5-yl]methyl]pyrazol-4-yl]pyrazolo[1,5-a]pyrimidine-3-carboxamide] | 16 nM | 0.39 nM |
| CN(CCN1CC(n2nnc(Cn3cc(NC(=O)c4cnn5cccnc45)c(-c4cc(OC(F)F)ccc4OC(F)F)n3)n2)C1)C(=O)OC(C)(C)C [Example 31, tert-butyl N-[2-[3-[5-[[3-[2,5-bis(difluoromethoxy)phenyl]-4-(pyrazolo[1,5-a]pyrimidine-3-carbonylamino)pyrazol-1-yl]methyl]tetrazol-2-yl]azetidin-1-yl]ethyl]-N-methyl-carbamate] | 22 nM | 0.25 nM |
| CN(C)CCN1CC(n2nnc(Cn3cc(NC(=O)c4cnn5cccnc45)c(-c4cc(Cl)ccc4OC(F)F)n3)n2)C1 [Example 37, N-[3-[5-chloro-2-(difluoromethoxy)phenyl]-1-[[2-[1-[2-(dimethylamino)ethyl]azetidin-3-yl]tetrazol-5-yl]methyl]pyrazol-4-yl]pyrazolo[1,5-a]pyrimidine-3-carboxamide] | 16 nM | 0.36 nM |
| CN1CCC(N2CC(n3nnc(Cn4cc(NC(=O)c5cnn6cccnc56)c(-c5cc(OC(F)F)ccc5OC(F)F)n4)n3)C2)CC1 [Example 38, N-[3-[2,5-bis(difluoromethoxy)phenyl]-1-[[2-[1-(1-methyl-4-piperidyl)azetidin-3-yl]tetrazol-5-yl]methyl]pyrazol-4-yl]pyrazolo[1,5-a]pyrimidine-3-carboxamide] | 18 nM | 0.44 nM |
| CSc1ccc(OC(F)F)c(-c2nn(Cc3nnn(C4CN(CCCN(C)C)C4)n3)cc2NC(=O)c2cnn3cccnc23)c1 [Example 58, N-[3-[2-(difluoromethoxy)-5-methylsulfanyl-phenyl]-1-[[2-[1-[3-(dimethylamino)propyl]azetidin-3-yl]tetrazol-5-yl]methyl]pyrazol-4-yl]pyrazolo[1,5-a]pyrimidine-3-carboxamide] | 57 nM | 0.38 nM |
| CN(C)CCN1CCC(n2nnc(Cn3cc(NC(=O)c4cnn5cccnc45)c(-c4cc(OC(F)F)ccc4OC(F)F)n3)n2)CC1 [Example 61, N-[3-[2,5-bis(difluoromethoxy)phenyl]-1-[[2-[1-[2-(dimethylamino)ethyl]-4-piperidyl]tetrazol-5-yl]methyl]pyrazol-4-yl]pyrazolo[1,5-a]pyrimidine-3-carboxamide] | 32 nM | 0.52 nM |
| CN(C)[C@H]1C[C@H](N2CC(n3nnc(Cn4cc(NC(=O)c5cnn6cccnc56)c(-c5cc(OC(F)F)ccc5OC(F)F)n4)n3)C2)C1 [Example 70, N-[3-[2,5-bis(difluoromethoxy)phenyl]-1-[[2-[1-[3-(dimethylamino)cyclobutyl]azetidin-3-yl]tetrazol-5-yl]methyl]pyrazol-4-yl]pyrazolo[1,5-a]pyrimidine-3-carboxamide] | 27 nM | 0.54 nM |
| CN1CC(N2CC(n3nnc(Cn4cc(NC(=O)c5cnn6cccnc56)c(-c5cc(OC(F)F)ccc5OC(F)F)n4)n3)C2)C1 [Example 78, N-[3-[2,5-bis(difluoromethoxy)phenyl]-1-[[2-[1-(1-methylazetidin-3-yl)azetidin-3-yl]tetrazol-5-yl]methyl]pyrazol-4-yl]pyrazolo[1,5-a]pyrimidine-3-carboxamide; formic acid] | 40 nM | 0.41 nM |
